Entries after “also recorded” stand apart in the source; their conditions may differ.
System: Sprague-Dawley rats
Assay: Chronic administration for 3 weeks, glucose tolerance test (OGTT) in rats
Assay type: in vivo
Details: rat, vs solvent control, listed as leonurine crystal form A
Method: […] male Sprague-Dawley rats weighed 180 to 220 g were randomly divided into 4 groups, and with vehicle or three different dose of leonurine crystal form A treatment respectively: control group are treated with equal volume of DMSO, and treatment groups are treated with 30 mg/kg per day, 60 mg/kg per day, or 120 mg/kg per day of leonurine crystal form A. Leonurine crystal form A was dissolved in DMSO at concentrates of 30 mg/ml, 60 mg/ml and 120 mg/ml, and the volume of vehicle administered intragastrically in each rat was 1 ml per kg of body weight. The rats were treated with leonurine crystal form A or DMSO once a day for 3 weeks. Oral glucose tolerance test (OGTT) was detected at third week, and the rats were fasted 12 h before OGTT experiment. OGTT experiment was performed 1 h after administered of drugs. Blood glucose and body weight were tested before OGTT. OGTT: Rats were given 25% glucose solution (2 g/kg of body weight, 8 ml/kg) by […], and blood glucose concentration was determined from the tail vein at 15, 30, 60 and 120 min. The drug was discontinued for one week after OGTT, and the body weight and fasting blood-glucose were detected at forth week.
The data were analyzed by SPSS statistical software (version 11.5), and results were expressed as the mean±standard error of the mean (mean±SEM). Multiple group comparisons were tested by one-way analysis of variance (ANOVA). P<0.05 was considered as statistically significant. […] At 15 min time point, the glucose tolerance curve was shifted down. […] Moreover, at 60 min time point, the glucose tolerance curve also was moved down at the dose of 30 mg/kg/d and 120 mg/kg/d.

## COc1cc(C(=O)OCCCCNC(=N)N)cc(OC)c1O [crystal form A, 4-guanidino-1-butyl 4-hydroxy-3,5-dimethoxybenzoate]
30 mg/kg/d for 3 weeks, 15 minute time point, 30 mg/kg/day
  glucose tolerance curve (blood glucose): reduce the degree of elevation of blood glucose; also recorded: decrease the level of blood glucose
30 mg/kg/d for 3 weeks, 60 minute time point, 30 mg/kg/day
  glucose tolerance curve (blood glucose): reduce the degree of elevation of blood glucose; also recorded: decrease the level of blood glucose
120 mg/kg/d for 3 weeks, 60 minute time point, 120 mg/kg/day
  glucose tolerance curve (blood glucose): reduce the degree of elevation of blood glucose; also recorded: decrease the level of blood glucose

— US11446270B2, “Leonurine crystal and use thereof in preparation of insulin sensitizer, hypoglycemic drug and lipid-lowering drug” (ZHUHAI HENGQIN NEW DISTRICT ZHONGZHU ZHENGTAI MEDICAL …, priority 2017, dated 2022)
